Patent US8822414B2, “Heterocyclic compounds suitable for the treatment of dyslipidemia” (Cadila Healthcare Limited, priority 2010, dated 2014)

Target: pro-protein convertase of the subtype nine binding to recombinant LDLR-AB domain (Homo sapiens, UniProt Q8NBP7)
Experiment: in vitro quantitative solid phase binding assay (ELISA) of the subtype nine pro-protein convertase to immobilized LDLR
Settings: for inhibition at 5 µM: Concentration 5 μM
Protocol: The in vitro binding assay described hereinafter is a quantitative solid phase binding assay for determining the efficacy of the compounds. Plates were pre-coated with a recombinant LDLR-AB domain, which binds to the gene pro-protein convertase of the subtype nine. Test compound at different concentrations was added to the subtype gene and added to LDLR immobilized on the wells. The amount of bound gene is measured by binding it with biotinylated anti-His-tag monoclonal antibody, followed by binding with horseradish peroxidase conjugated streptavidin substrate. The color was quantified by ELISA reader at […] which reflects the relative amount of “the gene” that binds to LDLR in presence and absence of the inhibitor. EC50 values were calculated by nonlinear regression analysis using graph pad prism software. Each concentration point represents values in duplicates.

pro-protein convertase of the subtype nine binding to recombinant LDLR-AB domain, sequence (Q8NBP7 153-692): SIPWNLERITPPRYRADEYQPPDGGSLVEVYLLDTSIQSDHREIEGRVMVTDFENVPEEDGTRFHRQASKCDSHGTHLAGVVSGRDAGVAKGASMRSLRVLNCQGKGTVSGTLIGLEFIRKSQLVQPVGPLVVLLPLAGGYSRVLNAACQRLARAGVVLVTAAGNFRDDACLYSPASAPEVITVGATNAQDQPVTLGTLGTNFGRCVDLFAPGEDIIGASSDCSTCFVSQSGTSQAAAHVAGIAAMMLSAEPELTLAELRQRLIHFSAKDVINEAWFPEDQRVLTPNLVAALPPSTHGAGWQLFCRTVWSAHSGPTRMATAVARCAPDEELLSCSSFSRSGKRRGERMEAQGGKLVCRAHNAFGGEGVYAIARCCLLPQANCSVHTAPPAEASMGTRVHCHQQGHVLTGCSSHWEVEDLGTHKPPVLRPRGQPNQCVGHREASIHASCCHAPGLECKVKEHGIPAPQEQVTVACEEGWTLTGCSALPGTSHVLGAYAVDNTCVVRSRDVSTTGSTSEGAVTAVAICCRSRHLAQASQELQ
pro-protein convertase of the subtype nine binding to recombinant LDLR-AB domain, sequence (Q8NBP7 31-152 partner limits assumed): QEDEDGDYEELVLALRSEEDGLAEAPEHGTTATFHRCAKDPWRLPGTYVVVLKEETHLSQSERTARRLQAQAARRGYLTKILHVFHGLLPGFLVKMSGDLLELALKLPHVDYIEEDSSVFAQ

| inhibition at 1 µM (Concentration 1 μM) | inhibition at 10 µM (Concentration 10 μM) | inhibition at 100 µM (Concentration 100 μM) | inhibition at 5 µM | % Inhibition (Concentration 1 μM) | % Inhibition (Concentration 10 μM) | % Inhibition (Concentration 100 μM) | Structure (SMILES) |
| --- | --- | --- | --- | --- | --- | --- | --- |
| 34% | 39% | 51% |  |  |  |  | CC(=NOCc1ccc(C(F)(F)F)cc1)c1ccc(NCC(=O)NCC2CCOCC2)nc1 [Example 4, N-((tetrahydro-2H-pyran-4-yl)methyl)-2-((5-(1-(((4-(trifluoromethyl)benzyl)oxy)imino)ethyl)pyridin-2-yl)amino)acetamide] |
| 34% | 40% | 50% |  |  |  |  | CCC(=NOCc1ccc(C(F)(F)F)cc1)c1ccc(NCC(=O)NCC2CCOCC2)cc1 [Example 5, N-((tetrahydro-2H-pyran-4-yl)methyl)-2-((4-(1-(((4-(trifluoromethyl)benzyl)oxy)imino)propyl)phenyl)amino)acetamide] |
| 3% | 35% | 51% | 18% |  |  |  | Cc1cc(C(Cc2ccccc2)=NOCc2ccc(C(F)(F)F)cc2)ccc1OCC(=O)NCC1CCOCC1 [Example 10, 2-(2-methyl-4-(2-phenyl-1-(((4-(trifluoromethyl)benzyl)oxy)imino)ethyl)phenoxy)-N-((tetrahydro-2H-pyran-4-yl)methyl)acetamide] |
| 20% | 49% | 61% | 23% |  |  |  | O=C(COc1ccc(C(Cc2ccccc2)=NOCc2ccc(C(F)(F)F)cc2)cc1)NCC1CCOCC1 [Example 11, 2-(4-(2-phenyl-1-(((4-(trifluoromethyl)benzyl)oxy)imino)ethyl)phenoxy)-N-((tetrahydro-2H-pyran-4-yl)methyl)acetamide] |
| 19% | 55% | 79% |  |  |  |  | O=C(COc1ccc(C(Cc2ccccc2)=NOCc2cccc(C(F)(F)F)c2)cc1)NCC1CCOCC1 [Example 12, 2-(4-(2-phenyl-1-(((3-(trifluoromethyl)benzyl)oxy)imino)ethyl)phenoxy)-N-((tetrahydro-2H-pyran-4-yl)methyl)acetamide] |
| 22% | 32% | 48% |  |  |  |  | O=C(COc1ccc(C(Cc2ccncc2)=NOCc2ccc(C(F)(F)F)cc2)cc1)NCC1CCOCC1 [Example 13, 2-(4-(2-(pyridin-4-yl)-1-(((4-(trifluoromethyl)benzyl)oxy)imino)ethyl)phenoxy)-N-((tetrahydro-2H-pyran-4-yl)methyl)acetamide] |
| 15% | 31% | 41% |  |  |  |  | O=C(COc1ccc(C(CN2CCOCC2)=NOCc2ccc(C(F)(F)F)cc2)cc1)NCC1CCOCC1 [Example 14, 2-(4-(2-morpholino-1-(((4-(trifluoromethyl)benzyl)oxy)imino)ethyl)phenoxy)-N-((tetrahydro-2H-pyran-4-yl)methyl)acetamide] |
| 25% | 37% | 39% |  |  |  |  | O=C(COc1ccc(C(CN2CCSCC2)=NOCc2ccc(C(F)(F)F)cc2)cc1)NCC1CCOCC1 [Example 15, N-((tetrahydro-2H-pyran-4-yl)methyl)-2-(4-(2-thiomorpholino-1-(((4-(trifluoromethyl)benzyl)oxy)imino)ethyl)phenoxy)acetamide] |
| 10% | 35% | 61% | 21% |  |  |  | Cc1cc(C(Cc2ccsc2)=NOCc2ccc(C(F)(F)F)cc2)ccc1OCC(=O)NCC1CCOCC1 [Example 16, 2-(2-methyl-4-(2-(thiophen-3-yl)-1-(((4-(trifluoromethyl)benzyl)oxy)imino)ethyl)phenoxy)-N-((tetrahydro-2H-pyran-4-yl)methyl)acetamide] |
| 13% | 19% | 44% |  |  |  |  | O=C(COc1ccc(C=NOCc2ccc(C(F)(F)F)cc2)cc1)NCC1CCOCC1 [Example 17, N-((tetrahydro-2H-pyran-4-yl)methyl)-2-(4-((((4-(trifluoromethyl)benzyl)oxy)imino)methyl)phenoxy)acetamide] |
|  | 40% | 46% |  |  |  |  | O=C(COc1ccc(C=NOCc2ccc(C(F)(F)F)cc2)cn1)NCC1CCOCC1 [Example 19, N-((tetrahydro-2H-pyran-4-yl)methyl)-2-((5-((((4-(trifluoromethyl)benzyl)oxy)imino)methyl)pyridin-2-yl)oxy)acetamide] |
| 20% | 34% | 57% |  |  |  |  | CC(=NOCc1ccc(C(F)(F)F)cc1)c1ccc(NCC(=O)NCC2CCOCC2)cc1 [Example 20, N-((tetrahydro-2H-pyran-4-yl)methyl)-2-((4-(1-(((4-(trifluoromethyl)benzyl)oxy)imino)ethyl)phenyl)amino)acetamide] |
|  |  | 15% |  |  |  |  | CC(=NOCc1ccc(C#N)cc1)c1ccc(OCC(=O)NCC2CCOCC2)nc1 [Example 21, 2-((5-(1-(((4-cyanobenzyl)oxy)imino)ethyl)pyridin-2-yl)oxy)-N-((tetrahydro-2H-pyran-4-yl)methyl)acetamide] |
| 30% | 42% | 47% |  |  |  |  | CCC(=NOCc1ccc(C(F)(F)F)cc1)c1ccc(NCC(=O)NCC2CCOCC2)nc1 [Example 23, N-((tetrahydro-2H-pyran-4-yl)methyl)-2-((5-(1-(((4-(trifluoromethyl)benzyl)oxy)imino)propyl)pyridin-2-yl)amino)acetamide] |
| 24% | 28% | 52% |  |  |  |  | CCC(=NOCc1ccccc1)c1ccc(OCC(=O)NCC2CCOCC2)nc1 [Example 24, 2-((5-(1-((benzyloxy)imino)propyl)pyridin-2-yl)oxy)-N-((tetrahydro-2H-pyran-4-yl)methyl)acetamide] |
| 28% | 34% | 50% |  |  |  |  | CCC(=NOCc1ccc(C)cc1)c1ccc(OCC(=O)NCC2CCOCC2)nc1 [Example 25, 2-((5-(1-(((4-methylbenzyl)oxy)imino)propyl)pyridin-2-yl)oxy)-N-((tetrahydro-2H-pyran-4-yl)methyl)acetamide] |
| 45% | 45% | 52% |  |  |  |  | CCC(=NOCc1ccc(OC)cc1)c1ccc(OCC(=O)NCC2CCOCC2)nc1 [Example 26, 2-((5-(1-(((4-methoxybenzyl)oxy)imino)propyl)pyridin-2-yl)oxy)-N-((tetrahydro-2H-pyran-4-yl)methyl)acetamide] |
| 10% | 15% | 29% |  |  |  |  | CCC(=NOCc1ccc(F)cc1)c1ccc(OCC(=O)NCC2CCOCC2)nc1 [Example 27, 2-((5-(1-(((4-fluorobenzyl)oxy)imino)propyl)pyridin-2-yl)oxy)-N-((tetrahydro-2H-pyran-4-yl)methyl)acetamide] |
|  |  | 23% |  |  |  |  | CCC(=NOCc1ccc(C#N)cc1)c1ccc(OCC(=O)NCC2CCOCC2)nc1 [Example 28, 2-((5-(1-(((4-cyanobenzyl)oxy)imino)propyl)pyridin-2-yl)oxy)-N-((tetrahydro-2H-pyran-4-yl)methyl)acetamide] |
|  |  | 36% |  |  |  |  | COCC(=NOCc1ccc(C(F)(F)F)cc1)c1ccc(OCC(=O)NCC2CCOCC2)cc1 [Example 30, 2-(4-(2-methoxy-1-(((4-(trifluoromethyl)benzyl)oxy)imino)ethyl)phenoxy)-N-((tetrahydro-2H-pyran-4-yl)methyl)acetamide] |
| 14% | 35% | 48% |  |  |  |  | Cc1ccc(CON=C(Cc2ccccc2)c2ccc(OCC(=O)NCC3CCOCC3)c(C)c2)cc1 [Example 32, 2-(2-methyl-4-(1-(((4-methylbenzyl)oxy)imino)-2-phenylethyl)phenoxy)-N-((tetrahydro-2H-pyran-4-yl)methyl)acetamide] |
| 10% | 10% | 28% |  |  |  |  | Cc1ccc(CON=C(Cc2ccccc2)c2ccc(OCC(=O)NCC3CCOCC3)cc2)cc1 [Example 33, 2-(4-(1-(((4-methylbenzyl)oxy)imino)-2-phenylethyl)phenoxy)-N-((tetrahydro-2H-pyran-4-yl)methyl)acetamide] |
| 7% | 13% | 32% |  |  |  |  | Cc1cc(C(Cc2ccccc2)=NOCc2ccc(F)cc2)ccc1OCC(=O)NCC1CCOCC1 [Example 34, 2-(4-(1-(((4-fluorobenzyl)oxy)imino)-2-phenylethyl)-2-methylphenoxy)-N-((tetrahydro-2H-pyran-4-yl)methyl)acetamide] |
| 22% | 13% | 25% |  |  |  |  | O=C(COc1ccc(C(Cc2ccccc2)=NOCc2ccc(F)cc2)cc1)NCC1CCOCC1 [Example 35, 2-(4-(1-(((4-fluorobenzyl)oxy)imino)-2-phenylethyl)phenoxy)-N-((tetrahydro-2H-pyran-4-yl)methyl)acetamide] |
|  |  |  |  | 6% | 9% | 36% | Cc1cc(C(Cc2ccccc2)=NOCc2ccc(Cl)cc2)ccc1OCC(=O)NCC1CCOCC1 [Example 36] |
| 20% | 26% | 28% |  |  |  |  | O=C(COc1ccc(C(Cc2ccccc2)=NOCc2ccc(Cl)cc2)cc1)NCC1CCOCC1 [Example 37, 2-(4-(1-(((4-chlorobenzyl)oxy)imino)-2-phenylethyl)phenoxy)-N-((tetrahydro-2H-pyran-4-yl)methyl)acetamide] |
|  | 19% | 38% |  |  |  |  | Cc1cc(C(Cc2ccccc2)=NOCc2ccc(OC(F)(F)F)cc2)ccc1OCC(=O)NCC1CCOCC1 [Example 38, 2-(2-methyl-4-(2-phenyl-1-(((4-(trifluoromethoxy)benzyl)oxy)imino)ethyl)phenoxy)-N-((tetrahydro-2H-pyran-4-yl)methyl)acetamide] |
